Results from paper PMC5976863, “The Active Components of Fuzheng Huayu Formula and Their Potential Mechanism of Action in Inhibiting the Hepatic Stellate Cells Viability – A Network Pharmacology and Transcriptomics Approach” (Frontiers in Pharmacology, 2018).
Where two headings read alike, the source gives them in different places.

Target: T1, peroxisome proliferator activator receptor gamma (PPARG) (Homo sapiens, UniProt P37231)
T1 sequence (P37231 1-505): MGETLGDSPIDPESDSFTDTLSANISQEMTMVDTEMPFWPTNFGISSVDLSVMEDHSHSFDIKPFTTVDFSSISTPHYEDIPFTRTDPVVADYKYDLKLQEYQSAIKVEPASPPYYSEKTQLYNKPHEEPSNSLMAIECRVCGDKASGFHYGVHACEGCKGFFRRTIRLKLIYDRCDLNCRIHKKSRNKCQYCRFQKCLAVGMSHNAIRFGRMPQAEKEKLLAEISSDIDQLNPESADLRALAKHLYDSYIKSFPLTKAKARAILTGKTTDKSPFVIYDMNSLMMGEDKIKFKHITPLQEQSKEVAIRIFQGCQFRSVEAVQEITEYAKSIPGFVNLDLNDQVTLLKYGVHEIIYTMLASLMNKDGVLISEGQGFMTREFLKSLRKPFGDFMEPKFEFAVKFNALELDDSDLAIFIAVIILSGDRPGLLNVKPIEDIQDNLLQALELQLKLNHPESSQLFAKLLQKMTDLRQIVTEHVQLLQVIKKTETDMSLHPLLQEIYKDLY
Assay: SPR (Biacore T200), PPARG immobilized on CM5 chip
Assay type: binding

Compound	Kd	Kd (read-out: Kd)
CCCCC/C=C/C=C1/C(=O)C=C[C@@H]1C/C=C\CCCC(=O)O [15d-PGJ2, reference compound]	9.8 µM	
O=c1c(O)c(-c2ccc(O)cc2)oc2cc(O)cc(O)c12 [Kaempferol]		51 µM
O=C(/C=C/c1ccc(O)c(O)c1/C=C/c1ccc(O)c(O)c1)O[C@H](Cc1ccc(O)c(O)c1)C(=O)O [Salvianolic acid A]		3.5 µM
COc1cc2c(c(OC)c1OC)-c1c(cc3c(c1OC)OCO3)CC(C)C(C)C2 (stereo not shown) [schisandrin B]		22 µM
